In the NIST ThermoML archive (doi:10.1021/je900442b):
Numbers after ± are expanded uncertainties.

Experiments:
[1] = 101 kPa, Liquid
[2] = xn = mol fraction of the nth substance listed; conditions: 101 kPa, Liquid

Structure (SMILES): CC(=O)OC(C)(C)C [1,1-dimethylethyl ethanoate]
- mass density ([1]; 298.15 K): 859.75 ± 0.95 kg/m3
- speed of sound ([1]; 298.15 K): 1091 ± 4 m/s
- mass density ([1]; 303.15 K): 853.94 ± 0.99 kg/m3
- speed of sound ([1]; 303.15 K): 1078 ± 4 m/s
- mass density ([1]; 308.15 K): 848.34 ± 1 kg/m3
- speed of sound ([1]; 308.15 K): 1049 ± 4 m/s
- mass density ([1]; 313.15 K): 842.67 ± 1.1 kg/m3
- speed of sound ([1]; 313.15 K): 1040 ± 4 m/s

Structure (SMILES): CC(=O)OC(C)(C)C [1,1-dimethylethyl ethanoate] + CO
- mass density ([2]; 298.15 K, x1 = 0.1004): 806.42 ± 0.87 kg/m3
- speed of sound ([2]; 298.15 K, x1 = 0.1004): 1107 ± 4 m/s
- mass density ([2]; 298.15 K, x1 = 0.1997): 819.95 ± 0.89 kg/m3
- speed of sound ([2]; 298.15 K, x1 = 0.1997): 1105 ± 4 m/s
- mass density ([2]; 298.15 K, x1 = 0.2996): 829.79 ± 0.9 kg/m3
- speed of sound ([2]; 298.15 K, x1 = 0.2996): 1105 ± 4 m/s
- mass density ([2]; 298.15 K, x1 = 0.3916): 836.73 ± 0.91 kg/m3
- speed of sound ([2]; 298.15 K, x1 = 0.3916): 1104 ± 4 m/s
- mass density ([2]; 298.15 K, x1 = 0.5003): 843.12 ± 0.92 kg/m3
- speed of sound ([2]; 298.15 K, x1 = 0.5003): 1103 ± 4 m/s
- mass density ([2]; 298.15 K, x1 = 0.5988): 847.72 ± 0.93 kg/m3
- speed of sound ([2]; 298.15 K, x1 = 0.5988): 1102 ± 4 m/s
- mass density ([2]; 298.15 K, x1 = 0.6994): 851.57 ± 0.94 kg/m3
- speed of sound ([2]; 298.15 K, x1 = 0.6994): 1100 ± 4 m/s
- mass density ([2]; 298.15 K, x1 = 0.7985): 854.72 ± 0.94 kg/m3
- speed of sound ([2]; 298.15 K, x1 = 0.7985): 1097 ± 4 m/s
- mass density ([2]; 298.15 K, x1 = 0.8992): 857.43 ± 0.95 kg/m3
- speed of sound ([2]; 298.15 K, x1 = 0.8992): 1094 ± 4 m/s
- mass density ([2]; 298.15 K, x1 = 1): 859.75 ± 0.95 kg/m3
- speed of sound ([2]; 298.15 K, x1 = 1): 1091 ± 4 m/s
- mass density ([2]; 303.15 K, x1 = 0.1004): 801.36 ± 0.91 kg/m3
- speed of sound ([2]; 303.15 K, x1 = 0.1004): 1090 ± 4 m/s
- mass density ([2]; 303.15 K, x1 = 0.1997): 814.66 ± 0.93 kg/m3
- speed of sound ([2]; 303.15 K, x1 = 0.1997): 1089 ± 4 m/s
- mass density ([2]; 303.15 K, x1 = 0.2996): 824.37 ± 0.94 kg/m3
- speed of sound ([2]; 303.15 K, x1 = 0.2996): 1089 ± 4 m/s
- mass density ([2]; 303.15 K, x1 = 0.3916): 831.21 ± 0.95 kg/m3
- speed of sound ([2]; 303.15 K, x1 = 0.3916): 1088 ± 4 m/s
- mass density ([2]; 303.15 K, x1 = 0.5003): 837.52 ± 0.96 kg/m3
- speed of sound ([2]; 303.15 K, x1 = 0.5003): 1087 ± 4 m/s
- mass density ([2]; 303.15 K, x1 = 0.5988): 842.05 ± 0.97 kg/m3
- speed of sound ([2]; 303.15 K, x1 = 0.5988): 1086 ± 4 m/s
- mass density ([2]; 303.15 K, x1 = 0.6994): 845.85 ± 0.97 kg/m3
- speed of sound ([2]; 303.15 K, x1 = 0.6994): 1085 ± 4 m/s
- mass density ([2]; 303.15 K, x1 = 0.7985): 848.96 ± 0.98 kg/m3
- speed of sound ([2]; 303.15 K, x1 = 0.7985): 1083 ± 4 m/s
- mass density ([2]; 303.15 K, x1 = 0.8992): 851.65 ± 0.98 kg/m3
- speed of sound ([2]; 303.15 K, x1 = 0.8992): 1080 ± 4 m/s
- mass density ([2]; 303.15 K, x1 = 1): 853.94 ± 0.99 kg/m3
- speed of sound ([2]; 303.15 K, x1 = 1): 1078 ± 4 m/s
- mass density ([2]; 308.15 K, x1 = 0.1004): 796.06 ± 0.94 kg/m3
- speed of sound ([2]; 308.15 K, x1 = 0.1004): 1069 ± 4 m/s
- mass density ([2]; 308.15 K, x1 = 0.1997): 809.27 ± 0.96 kg/m3
- speed of sound ([2]; 308.15 K, x1 = 0.1997): 1065 ± 4 m/s
- mass density ([2]; 308.15 K, x1 = 0.2996): 818.91 ± 0.98 kg/m3
- speed of sound ([2]; 308.15 K, x1 = 0.2996): 1063 ± 4 m/s
- mass density ([2]; 308.15 K, x1 = 0.3916): 825.7 ± 0.99 kg/m3
- speed of sound ([2]; 308.15 K, x1 = 0.3916): 1061 ± 4 m/s
- mass density ([2]; 308.15 K, x1 = 0.5003): 831.98 ± 1 kg/m3
- speed of sound ([2]; 308.15 K, x1 = 0.5003): 1059 ± 4 m/s
- mass density ([2]; 308.15 K, x1 = 0.5988): 836.48 ± 1 kg/m3
- speed of sound ([2]; 308.15 K, x1 = 0.5988): 1057 ± 4 m/s
- mass density ([2]; 308.15 K, x1 = 0.6994): 840.26 ± 1 kg/m3
- speed of sound ([2]; 308.15 K, x1 = 0.6994): 1055 ± 4 m/s
- mass density ([2]; 308.15 K, x1 = 0.7985): 843.36 ± 1 kg/m3
- speed of sound ([2]; 308.15 K, x1 = 0.7985): 1053 ± 4 m/s
- mass density ([2]; 308.15 K, x1 = 0.8992): 846.04 ± 1 kg/m3
- speed of sound ([2]; 308.15 K, x1 = 0.8992): 1051 ± 4 m/s
- mass density ([2]; 308.15 K, x1 = 1): 848.34 ± 1 kg/m3
- speed of sound ([2]; 308.15 K, x1 = 1): 1049 ± 4 m/s
- mass density ([2]; 313.15 K, x1 = 0.1004): 791.34 ± 0.98 kg/m3
- speed of sound ([2]; 313.15 K, x1 = 0.1004): 1055 ± 4 m/s
- mass density ([2]; 313.15 K, x1 = 0.1997): 804.29 ± 1 kg/m3
- speed of sound ([2]; 313.15 K, x1 = 0.1997): 1052 ± 4 m/s
- mass density ([2]; 313.15 K, x1 = 0.2996): 813.75 ± 1 kg/m3
- speed of sound ([2]; 313.15 K, x1 = 0.2996): 1051 ± 4 m/s
- mass density ([2]; 313.15 K, x1 = 0.3916): 820.41 ± 1 kg/m3
- speed of sound ([2]; 313.15 K, x1 = 0.3916): 1049 ± 4 m/s
- mass density ([2]; 313.15 K, x1 = 0.5003): 826.57 ± 1 kg/m3
- speed of sound ([2]; 313.15 K, x1 = 0.5003): 1048 ± 4 m/s
- mass density ([2]; 313.15 K, x1 = 0.5988): 831 ± 1 kg/m3
- speed of sound ([2]; 313.15 K, x1 = 0.5988): 1046 ± 4 m/s
- mass density ([2]; 313.15 K, x1 = 0.6994): 834.72 ± 1.1 kg/m3
- speed of sound ([2]; 313.15 K, x1 = 0.6994): 1045 ± 4 m/s
- mass density ([2]; 313.15 K, x1 = 0.7985): 837.77 ± 1.1 kg/m3
- speed of sound ([2]; 313.15 K, x1 = 0.7985): 1043 ± 4 m/s
- mass density ([2]; 313.15 K, x1 = 0.8992): 840.4 ± 1.1 kg/m3
- speed of sound ([2]; 313.15 K, x1 = 0.8992): 1041 ± 4 m/s
- mass density ([2]; 313.15 K, x1 = 1): 842.67 ± 1.1 kg/m3
- speed of sound ([2]; 313.15 K, x1 = 1): 1040 ± 4 m/s

Structure (SMILES): CCCCOC(C)=O [butyl ethanoate]
- mass density ([1]; 298.15 K): 876.18 ± 0.86 kg/m3
- speed of sound ([1]; 298.15 K): 1190 ± 4 m/s
- mass density ([1]; 303.15 K): 871.27 ± 0.9 kg/m3
- speed of sound ([1]; 303.15 K): 1173 ± 4 m/s
- mass density ([1]; 308.15 K): 865.41 ± 0.94 kg/m3
- speed of sound ([1]; 308.15 K): 1150 ± 4 m/s
- mass density ([1]; 313.15 K): 860.46 ± 0.98 kg/m3
- speed of sound ([1]; 313.15 K): 1131 ± 4 m/s
